Source: patent publication US20130317037A1, “METHOD OF ADMINISTRATION AND TREATMENT” (GlaxoSmithKline Intellectual Property Development Limited, priority 2010, published 2013)
Where two headings read alike, the source gives them in different places.

What was measured:
MCF7 = assay: Panel A proliferation assay (CellTiter-Glo); HER2 Loss 1 copy, KRAS WT, PIK3CA p.E545K; type: cell-based, human; conditions: for IC50: Homo sapiens
Method: (§1) A total of 15 breast cancer cell lines were used in this study. These cells were cultured in RPMI-1640 and supplemented with 5% or 10% fetal bovine serum, 2 mM GlutaMAX™ and 1 mM sodium pyruvate, or in growth medium recommended by the suppliers [American Type Culture Collection, Manassas, Va., USA; Developmental Therapeutics Program, National Cancer Institute, Bethesda, Md., USA; German Collection of Microorganisms and Cell Cultures (DSMZ), Braunschweig, Germany; European Collection of Cell Cultures (ECACC), Porton Down, UK]. Cells of each line were seeded into a 384-well microtiter plate at two cell densities. Low density ranges were 300-1800 cells/well, and a high density was 600 to 3600 cells/well). The plating density was determined by the rate of proliferation of the cell line in the absence of any inhibitor and varied amongst cell lines. High plating densities were double that of low density. Each cell density was plated in triplicate. In total there were 30 wells to be treated with increasing concentrations of Compound B for each cell line at each density. In addition, there were 24 wells of dimethyl sulfoxide (DMSO)-treated controls at each density. After seeding, the cells were incubated at 37° C. in 5% CO2 for 24 hours. Subsequently, Compound B was added to each cell line with 10 concentrations. The dosing solution of Compound B was first prepared in DMSO at a master stock concentration of 10 mM. […] were then made of the stock solution to give a range of working stock concentrations; 10.00 mM, 3.164 mM, 1.001 mM, 316.9 μM, 100.3 μM, 31.74 μM, 10.04 μM, 3.178 μM, 1.006 μM and 318.3 nM. The working stock concentrations of Compound B were then dispensed into the seeded cancer cell lines using a Biomek FX liquid handler to give final treatment concentrations of 0.1% of the stock concentration. A similar volume of DMSO without Compound B was dispensed into the 24 control wells of each seeding density at a concentration of 0.1%. Also, a zero-time plate prepared with a similar cell seeding was read for each cell line at each seeding density immediately after the addition of the DMSO control. After a 72 h incubation, an equal volume of the CellTiter-Glo (CellTiter-Glo Luminescent Cell Viability Assay, Promega, Madison, Wis.) to that of the cell culture medium was added into each well of the plate. After the contents were mixed to induce cell lysis and stabilization, cell luminescence was recorded using a SpectraMax M5^e (Molecular Devices, Sunnyvale, Calif., USA)
(§2) The luminescence of Compound B treated cells was compared relative to the average of the 24 DMSO-treated control wells at each cell density for every concentration of Compound B for all triplicate wells. The percent intensity values were used in model 205 of XLfit in Microsoft Excel to calculate gIC50s for the low and high seeding density (a 4 parameter logistical fit). Specifically, the midpoint of the growth window (the gIC50) falls half way between the number of cells at the time of compound addition (T=0) and the growth of control cells treated with DMSO. The gIC50 value serves as a metric for measuring the inhibition of proliferation in cancer cells. […] Finally, where data quality permits, the Ymin values (defined as the maximum growth inhibition relative to the cell density at Time-zero) were calculated as a measure of cytotoxicity where data were of reasonable quality.

BT-20 = assay: Panel A proliferation assay (CellTiter-Glo); HER2 2 copies, KRAS WT, PIK3CA p.P539R; type: cell-based, human; conditions: for IC50: Homo sapiens
Method: as §1, §2

184A1 = assay: in vitro; type: cell-based
Method: (§3) From the stock concentration, 8 serial dilutions (1:5) were made with DMSO.
(§4) Day −1: Plate cells in 100 μl volume in 96 well plate. • Note: Cell number seeded adjusted for growth characteristics, so that at time of assay for proliferation following three-day drug treatment, the control wells should still be in log-growth phase (sub-confluent). Day 0: Drug added to plate for treatment. • A time 0 plate was processed for the proliferation assay to establish a baseline reading at time when drug was added.
(§5) LBNL are following the protocols set up by the NCI/NIH DTP Human Tumor Cell Line Screen Process (http://dtp.nci.nih.gov/branches/btb/ivclsp.html) and summarized below.
(§6) [(Ti−Tz)/(C−Tz)]×100 for concentrations for which Ti>/=Tz
(§7) [(Ti−Tz)/(C−Tz)]×100=50, • which is the drug concentration resulting in a 50% reduction in the net growth in control cells during the drug incubation. TGI: Total growth inhibition is calculated from
(§8) Ti=Tz. • The drug concentration resulting in total growth inhibition (down to the ‘time 0’ baseline). LC50: Net loss of cell growth at 50% is calculated from
(§9) [(Ti−Tz)/Tz]×100=−50. • The concentration of drug resulting in a 50% reduction in the cell number at the end of the drug treatment as compared to that at the beginning (time 0) indicating a net loss of cells following treatment.
(§10) Values are calculated for each of these three parameters if the level of activity is reached; however, if the effect is not reached or is exceeded, the value for that parameter is expressed as greater or less than the maximum or minimum concentration tested.

HCC1187 = assay: cells; type: cell-based
Method: as §3, §4, §5, §6, §7, §8, §9, §10

HCC1395 = assay: cells; type: cell-based
Method: as §3, §4, §5, §6, §7, §8, §9, §10

MCF12A = assay: cells; type: cell-based
Method: as §3, §4, §5, §6, §7, §8, §9, §10

MX-1 = assay: cells; type: cell-based
Method: as §3, §4, §5, §6, §7, §8, §9, §10

SUM1315MO2 = assay: cells; type: cell-based
Method: as §3, §4, §5, §6, §7, §8, §9, §10

COc1ncc(-c2ccc3nccc(-c4ccnnc4)c3c2)cc1NS(=O)(=O)c1ccc(F)cc1F [Compound B, 2,4-difluoro-N-{2-(methyloxy)-5-[4-(4-pyridazinyl)-6-quinolinyl]-3-pyridinyl}benzenesulfonamide]
IC50 (MCF7; MCF7, high seeding density, 72 h, read-out: High Density gIC50): 1.1 nM
IC50 (MCF7; MCF7, low seeding density, 72 h, read-out: Low Density gIC50): 2.5 nM
IC50 (MCF7; MCF7, mean of low and high density, read-out: Mean gIC50): 1.8 nM
High Density Y-Min (MCF7; MCF7, high density, % of cells at T = 0): 82.2%
Low Density Y-Min (MCF7; MCF7, low density, % of cells at T = 0): 78.5%
High Density Y-Min (BT-20; BT-20, high density, % of cells at T = 0): 20.7%
Low Density Y-Min (BT-20; BT-20, low density, % of cells at T = 0): 10.7%
IC50 (BT-20; BT-20, high seeding density, 72 h, read-out: High Density gIC50): 7.8 nM
IC50 (BT-20; BT-20, low seeding density, 72 h, read-out: Low Density gIC50): 6.3 nM
IC50 (BT-20; BT-20, mean of low and high density, read-out: Mean gIC50): 7.05 nM
TGI (184A1; 184A1, total growth inhibition): 16.3 nM
IC50 (184A1; Homo sapiens, 72 h, 184A1, three-day drug treatment, read-out: gIC50): 1.6 nM
TGI (HCC1187; HCC1187, total growth inhibition): 35.5 nM
IC50 (HCC1187; Homo sapiens, 72 h, HCC1187, three-day drug treatment, read-out: gIC50): 4.9 nM
CC50 (HCC1187; Homo sapiens, HCC1187, 50% net loss of cells vs time 0, read-out: LC50 (the source's name)): 118 nM
TGI (HCC1395; HCC1395, total growth inhibition): 358.6 nM
IC50 (HCC1395; Homo sapiens, 72 h, HCC1395, three-day drug treatment, read-out: gIC50): 50.3 nM
CC50 (HCC1395; Homo sapiens, HCC1395, 50% net loss of cells vs time 0, read-out: LC50 (the source's name)): 26700 nM
IC50 (MCF12A; Homo sapiens, MCF-12A, 72 h, three-day drug treatment, read-out: gIC50): 7.4 nM
TGI (MCF12A; total growth inhibition): 178.5 nM
IC50 (MX-1; Homo sapiens, MX1, 72 h, MX-1, three-day drug treatment, read-out: gIC50): 5.2 nM
CC50 (MX-1; Homo sapiens, MX1, MX-1, 50% net loss of cells vs time 0, read-out: LC50 (the source's name)): 251 nM
TGI (MX-1; MX-1, total growth inhibition): 20.4 nM
IC50 (SUM1315MO2; Homo sapiens, 72 h, SUM1315MO2, three-day drug treatment, read-out: gIC50): 10 nM
CC50 (SUM1315MO2; Homo sapiens, SUM1315MO2, 50% net loss of cells vs time 0, read-out: LC50 (the source's name)): 8880 nM
TGI (SUM1315MO2; SUM1315MO2, total growth inhibition): 158.3 nM
